Laboratory results taken from US20020137929A1, “1 - (3-heterocyclylphenyl) isothiourea, -isourea, -guanidine and -amidine herbicidal agents” (Intellectual Property Department, BASF Aktiengesellschaft, priority 1998, published 2002).

Tests used:
[1] = test system: TRZAWR (Wheat, Winter, cv Riband); assay: Postemergence herbicidal evaluation; format: in vivo, Triticum aestivum; conditions: postemergence
In short: (§1)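 Young plants, roughly two weeks from seeding, receive the active ingredient as a sprayed dispersion (acetone/water 50/50, 0.5% TWEEN 20) at 40 psi. Doses span about 0.0156 to 0.500 kg/ha. A visual score from 0 to 9 compares treated with control plants four to five weeks on.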

ABUTH (Velvetleaf) = assay: Preemergence herbicidal evaluation; format: in vivo, Abutilon theophrasti; conditions: rated 4-5 weeks after treatment, rating scale 0-9
In short: (§2)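 Scores use a 0–9 visual scale covering stand, vigor, malformation, size and chlorosis relative to controls, rated four to five weeks after treatment. Before emergence, soil-planted seeds were sprayed with compound in aqueous acetone at roughly 0.0156–0.500 kg/ha and held in the greenhouse.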

ZEAMX (Corn, Field) = assay: Preemergence herbicidal evaluation; format: in vivo, Zea mays; conditions: rated 4-5 weeks after treatment, rating scale 0-9
In short: as §2

CYPIR (Rice Flatsedge) = assay: Preemergence weed control under flooded paddy conditions; format: in vivo, Cyperus iria; conditions: rated 3-4 weeks after treatment
In short: (§3)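 Visual injury scored 0-9 against control three to four weeks post-treatment, greenhouse-grown. Application: acetone/water (50/50) solutions dosed directly into flood water (1.5-3 cm over silt loam, planted top 0.5 cm), roughly 0.0313 to 0.500 kg/ha active ingredient.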

[2] = test system: IPOHE (Morningglory, Ivyleaf); assay: Postemergence herbicidal evaluation; format: in vivo, Ipomoea hederacea; conditions: postemergence
In short: as §1

SETVI (Foxtail, Green) [3] = assay: Postemergence herbicidal evaluation; format: in vivo, Setaria viridis; conditions: postemergence
In short: as §1

ECHCG (Barnyardgrass) = assay: Preemergence herbicidal evaluation; format: in vivo, Echinochloa crus-galli; conditions: rated 4-5 weeks after treatment, rating scale 0-9
In short: as §2

SETVI (Foxtail, Green) [4] = assay: Preemergence herbicidal evaluation; format: in vivo, Setaria viridis; conditions: rated 4-5 weeks after treatment, rating scale 0-9
In short: as §2

[5] = test system: IPOHE (Morningglory, Ivyleaf); assay: Preemergence herbicidal evaluation; format: in vivo, Ipomoea hederacea; conditions: rated 4-5 weeks after treatment, rating scale 0-9
In short: as §2

MOOVA (Monochoria) = assay: Preemergence weed control under flooded paddy conditions; format: in vivo, Monochoria vaginalis; conditions: rated 3-4 weeks after treatment
In short: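 Ratings on a 0-9 visual scale cover stand, vigor, malformation, size, chlorosis and overall appearance relative to a control, taken three to four weeks post-treatment. Application was into flood water over freshly sown silt loam at roughly 0.0313 to 0.500 kg/ha.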

GALAP (Galium) = assay: Postemergence herbicidal evaluation; format: in vivo, Galium aparine; conditions: postemergence
In short: as §1

[6] = test system: ECHORC (Watergrass (Calif.)); assay: Preemergence weed control under flooded paddy conditions; format: in vivo, Echinochloa oryzoides; conditions: rated 3-4 weeks after treatment
In short: as §3

## COCCN1C(=O)CSC1=Nc1cc(-n2c(=O)cc(C(F)(F)F)n(C)c2=O)c(F)cc1Cl [Compound 155, 3-{4-Chloro-2-fluoro-5-{[3-(2-methoxyethyl)-4-oxo-2-thiazolidinylidene]amino}phenyl}-1-methyl-6-(trifluoromethyl)-2,4(1H,3H)-pyrimidinedione]
[1]; rate 0.0156 kg/ha
  herbicidal rating TRZAWR: 1.0
[1]; rate 0.0313 kg/ha
  herbicidal rating TRZAWR: 2.0
[1]; rate 0.0625 kg/ha
  herbicidal rating TRZAWR: 3.0
ABUTH (Velvetleaf); rate 0.0625 kg/ha
  Preemergence herbicidal rating ABUTH: 2.0
ABUTH (Velvetleaf); rate 0.1250 kg/ha
  Preemergence herbicidal rating ABUTH: 4.0
ABUTH (Velvetleaf); rate 0.2500 kg/ha
  Preemergence herbicidal rating ABUTH: 7.0
ZEAMX (Corn, Field); rate 0.0625 kg/ha
  Preemergence herbicidal rating ZEAMX: 0.0
ZEAMX (Corn, Field); rate 0.1250 kg/ha
  Preemergence herbicidal rating ZEAMX: 0.0
ZEAMX (Corn, Field); rate 0.2500 kg/ha
  Preemergence herbicidal rating ZEAMX: 2.0
CYPIR (Rice Flatsedge); 0.0313 kg/ha
  herbicidal effect rating, CYPIR: 0.0
CYPIR (Rice Flatsedge); 0.0625 kg/ha
  herbicidal effect rating, CYPIR: 0.0
CYPIR (Rice Flatsedge); 0.1250 kg/ha
  herbicidal effect rating, CYPIR: 0.0
CYPIR (Rice Flatsedge); 0.2500 kg/ha
  herbicidal effect rating, CYPIR: 0.0
[2]; rate 0.0156 kg/ha
  herbicidal rating IPOHE: 2.0
[2]; rate 0.0313 kg/ha
  herbicidal rating IPOHE: 4.0
[2]; rate 0.0625 kg/ha
  herbicidal rating IPOHE: 9.0
SETVI (Foxtail, Green) [3]; rate 0.0156 kg/ha
  herbicidal rating SETVI: 0.0
SETVI (Foxtail, Green) [3]; rate 0.0313 kg/ha
  herbicidal rating SETVI: 0.0
SETVI (Foxtail, Green) [3]; rate 0.0625 kg/ha
  herbicidal rating SETVI: 0.0
ECHCG (Barnyardgrass); rate 0.0625 kg/ha
  Preemergence herbicidal rating ECHCG: 0.0
ECHCG (Barnyardgrass); rate 0.1250 kg/ha
  Preemergence herbicidal rating ECHCG: 0.0
ECHCG (Barnyardgrass); rate 0.2500 kg/ha
  Preemergence herbicidal rating ECHCG: 0.0
SETVI (Foxtail, Green) [4]; rate 0.0625 kg/ha
  Preemergence herbicidal rating SETVI: 0.0
SETVI (Foxtail, Green) [4]; rate 0.1250 kg/ha
  Preemergence herbicidal rating SETVI: 0.0
SETVI (Foxtail, Green) [4]; rate 0.2500 kg/ha
  Preemergence herbicidal rating SETVI: 0.0
[5]; rate 0.0625 kg/ha
  Preemergence herbicidal rating IPOHE: 0.0
[5]; rate 0.1250 kg/ha
  Preemergence herbicidal rating IPOHE: 0.0
[5]; rate 0.2500 kg/ha
  Preemergence herbicidal rating IPOHE: 2.0
MOOVA (Monochoria); 0.0313 kg/ha
  herbicidal effect rating, MOOVA: 0.0
MOOVA (Monochoria); 0.0625 kg/ha
  herbicidal effect rating, MOOVA: 0.0
MOOVA (Monochoria); 0.1250 kg/ha
  herbicidal effect rating, MOOVA: 0.0
MOOVA (Monochoria); 0.2500 kg/ha
  herbicidal effect rating, MOOVA: 0.0
GALAP (Galium); rate 0.0156 kg/ha
  herbicidal rating GALAP: 0.0
GALAP (Galium); rate 0.0313 kg/ha
  herbicidal rating GALAP: 0.0
GALAP (Galium); rate 0.0625 kg/ha
  herbicidal rating GALAP: 0.0
[6]; 0.0313 kg/ha
  herbicidal effect rating, ECHORC: 4.0
[6]; 0.0625 kg/ha
  herbicidal effect rating, ECHORC: 4.0
[6]; 0.1250 kg/ha
  herbicidal effect rating, ECHORC: 4.0
[6]; 0.2500 kg/ha
  herbicidal effect rating, ECHORC: 4.0

## Cn1c(C(F)(F)F)cc(=O)n(-c2cc(N=C3SCC(=O)N3Cc3ccccc3Cl)c(Cl)cc2F)c1=O [Compound 143]
[1]; rate 0.0156 kg/ha
  herbicidal rating TRZAWR: 1.5
[1]; rate 0.0313 kg/ha
  herbicidal rating TRZAWR: 2.0
[1]; rate 0.0625 kg/ha
  herbicidal rating TRZAWR: 3.5
ABUTH (Velvetleaf); rate 0.0313 kg/ha
  Preemergence herbicidal rating ABUTH: 1.0
ABUTH (Velvetleaf); rate 0.0625 kg/ha
  Preemergence herbicidal rating ABUTH: 1.0
ABUTH (Velvetleaf); rate 0.1250 kg/ha
  Preemergence herbicidal rating ABUTH: 6.0
ABUTH (Velvetleaf); rate 0.2500 kg/ha
  Preemergence herbicidal rating ABUTH: 9.0
ZEAMX (Corn, Field); rate 0.0313 kg/ha
  Preemergence herbicidal rating ZEAMX: 0.0
ZEAMX (Corn, Field); rate 0.0625 kg/ha
  Preemergence herbicidal rating ZEAMX: 0.0
ZEAMX (Corn, Field); rate 0.1250 kg/ha
  Preemergence herbicidal rating ZEAMX: 0.0
ZEAMX (Corn, Field); rate 0.2500 kg/ha
  Preemergence herbicidal rating ZEAMX: 0.0
CYPIR (Rice Flatsedge); 0.0313 kg/ha
  herbicidal effect rating, CYPIR: 0.0
CYPIR (Rice Flatsedge); 0.0625 kg/ha
  herbicidal effect rating, CYPIR: 3.0
CYPIR (Rice Flatsedge); 0.1250 kg/ha
  herbicidal effect rating, CYPIR: 4.0
CYPIR (Rice Flatsedge); 0.2500 kg/ha
  herbicidal effect rating, CYPIR: 4.0
[2]; rate 0.0156 kg/ha
  herbicidal rating IPOHE: 9.0
[2]; rate 0.0313 kg/ha
  herbicidal rating IPOHE: 9.0
[2]; rate 0.0625 kg/ha
  herbicidal rating IPOHE: 9.0
SETVI (Foxtail, Green) [3]; rate 0.0156 kg/ha
  herbicidal rating SETVI: 2.0
SETVI (Foxtail, Green) [3]; rate 0.0313 kg/ha
  herbicidal rating SETVI: 1.0
SETVI (Foxtail, Green) [3]; rate 0.0625 kg/ha
  herbicidal rating SETVI: 3.0
ECHCG (Barnyardgrass); rate 0.0313 kg/ha
  Preemergence herbicidal rating ECHCG: 0.0
ECHCG (Barnyardgrass); rate 0.0625 kg/ha
  Preemergence herbicidal rating ECHCG: 0.0
ECHCG (Barnyardgrass); rate 0.1250 kg/ha
  Preemergence herbicidal rating ECHCG: 1.0
ECHCG (Barnyardgrass); rate 0.2500 kg/ha
  Preemergence herbicidal rating ECHCG: 1.0
SETVI (Foxtail, Green) [4]; rate 0.0313 kg/ha
  Preemergence herbicidal rating SETVI: 0.0
SETVI (Foxtail, Green) [4]; rate 0.0625 kg/ha
  Preemergence herbicidal rating SETVI: 0.0
SETVI (Foxtail, Green) [4]; rate 0.1250 kg/ha
  Preemergence herbicidal rating SETVI: 3.0
SETVI (Foxtail, Green) [4]; rate 0.2500 kg/ha
  Preemergence herbicidal rating SETVI: 3.0
[5]; rate 0.0313 kg/ha
  Preemergence herbicidal rating IPOHE: 0.0
[5]; rate 0.0625 kg/ha
  Preemergence herbicidal rating IPOHE: 0.0
[5]; rate 0.1250 kg/ha
  Preemergence herbicidal rating IPOHE: 1.0
[5]; rate 0.2500 kg/ha
  Preemergence herbicidal rating IPOHE: 3.0
MOOVA (Monochoria); 0.0313 kg/ha
  herbicidal effect rating, MOOVA: 5.0
MOOVA (Monochoria); 0.0625 kg/ha
  herbicidal effect rating, MOOVA: 6.0
MOOVA (Monochoria); 0.1250 kg/ha
  herbicidal effect rating, MOOVA: 6.0
MOOVA (Monochoria); 0.2500 kg/ha
  herbicidal effect rating, MOOVA: 6.0
GALAP (Galium); rate 0.0156 kg/ha
  herbicidal rating GALAP: 0.0
GALAP (Galium); rate 0.0313 kg/ha
  herbicidal rating GALAP: 1.0
GALAP (Galium); rate 0.0625 kg/ha
  herbicidal rating GALAP: 3.0
[6]; 0.0313 kg/ha
  herbicidal effect rating, ECHORC: 5.0
[6]; 0.0625 kg/ha
  herbicidal effect rating, ECHORC: 7.0
[6]; 0.1250 kg/ha
  herbicidal effect rating, ECHORC: 9.0
[6]; 0.2500 kg/ha
  herbicidal effect rating, ECHORC: 9.0
